From patent US20250002464A1, “NOVEL COMPOUND AND PHARMACEUTICAL COMPOSITION COMPRISING SAME” (SAPIENSBIO INC., priority 2021, published 2025) come the findings set out here.

The assay concerns α-SMA. The assay is described as follows: α-SMA expression inhibitory ability in MRC5 cell line (Western blotting). It counts as cell-based. The following applies: TGF-β1 (10 ng/mL), 72 hours, relative to TGF-β1 only. Here is the method: Subsequently, the inhibitory effect on pulmonary fibrosis of the compounds according to the present invention was overall evaluated. An MRC5 cell line was treated with each compound at 10 μM, and 2 hours later, treated with TGF-β1 (10 ng/mL). After 72 hours, the cells were lysed using RIPA Buffer, and then an α-SMA protein level was measured through Western blotting. The α-SMA expression level when treating the cells with each compound and TGF-β1 compared to the α-SMA expression level when treating the cells only with TGF-β1 without the compound was calculated as the α-SMA expression inhibitory ability of the corresponding compound. The α-SMA expression inhibitory ability of each compound is summarized in Table 2 below (A: inhibitory ability≥70%, B: 50%: inhibitory ability<70%, C: inhibitory ability<50%).
Regarding `CC(C(=O)N1CCN(c2ccccc2)c2ccccc21)N1CCCC1` (stereo not shown) [Compound 61, 1-(4-phenyl-3,4-dihydroquinoxaline-1(2H)-yl)-2-(pyrrolidin-1-yl)propan-1-one], the inhibition at 10 µM was below 50%.

As for `CC(C)N1CCN(C(=O)CCN2CCCCC2)c2ccccc21` [Compound 178, 1-(4-isopropyl-3,4-dihydroquinoxaline-1(2H)-yl)-3-(piperidin-1-yl)propan-1-one], the inhibition at 10 µM is below 50%.

On to `CN1CCN(CCC(=O)N2CCN(c3ccc(F)cc3)c3cc(F)ccc32)CC1` [Compound 39, 1-(6-fluoro-4-(4-fluorophenyl)-3,4-dihydroquinoxaline-1(2H)-yl)-3-(4-methylpiperazin-1-yl)propan-1-one], for which the inhibition at 10 µM was 50 to 70%.

In the case of `CC(C(=O)N1CCN(C2CCCCC2)c2ccccc21)N1CCN(C)CC1` (stereo not shown) [Compound 192, 1-(4-cyclohexyl-3,4-dihydroquinoxaline-1(2H)-yl)-2-(4-methylpiperazin-1-yl)propan-1-one], the inhibition at 10 µM is below 50%.

For the compound `CN1CCN(CC(=O)N2CCN(C(=O)c3ccccc3)c3ccccc32)CC1` [Compound 204, 1-(4-benzoyl-3,4-dihydroquinoxaline-1(2H)-yl)-2-(4-methylpiperazin-1-yl)ethan-1-one], the inhibition at 10 µM is below 50%.

`O=C(CCN1CCCC1)N1CCN(c2ccc(F)cc2)c2ccccc21` [Compound 14, 1-(4-(4-fluorophenyl)-3,4-dihydroquinoxaline-1(2H)-yl)-3-(pyrrolidin-1-yl)propan-1-one] gave an inhibition at 10 µM of at least 70%.

Consider `O=C(CN1CCN(c2ccccc2)c2ccccc21)N1CCN(C2CC2)CC1` [Compound 76, 1-(4-cyclopropylpiperazin-1-yl)-2-(4-phenyl-3,4-dihydroquinoxaline-1(2H)-yl)ethan-1-one], for which the inhibition at 10 µM is below 50%.

For `O=C(CCN1CC[C@H](O)C1)N1CCN(c2ccc(F)cc2)c2ccccc21` [Compound 23, (S)-1-(4-(4-fluorophenyl)-3,4-dihydroquinoxaline-1(2H)-yl)-3-(3-hydroxypyrrolidin-1-yl)propan-1-one], the inhibition at 10 µM is at least 70%.

Consider `O=C(CCN1CCOCC1)N1CCN(c2ccc(F)cc2)c2cc(F)ccc21` [Compound 37, 1-(6-fluoro-4-(4-fluorophenyl)-3,4-dihydroquinoxaline-1(2H)-yl)-3-morpholinopropan-1-one], for which the inhibition at 10 µM was below 50%.

In the case of `CN1CCN(CCC(=O)N2CCN(Cc3cccc(Cl)c3)c3ccccc32)CC1` [Compound 98, 1-(4-(3-chlorobenzyl)-3,4-dihydroquinoxaline-1(2H)-yl)-3-(4-methylpiperazin-1-yl)propan-1-one], the inhibition at 10 µM was below 50%.

Take `CC(C(=O)N1CCN(c2ccccc2)c2ccccc21)N1CCN2CCCC2C1` (stereo not shown) [Compound 64, 2-(hexahydropyrrolo[1,2-a]pyrazin-2(1H)-yl)-1-(4-phenyl-3,4-dihydroquinoxaline-1(2H)-yl)propan-1-one]: the inhibition at 10 µM was below 50%.

Compound `O=C(CN1CCCC1)N1CCN(c2ccccc2Cl)c2ccccc21` [Compound 131, 1-(4-(2-chlorophenyl)-3,4-dihydroquinoxaline-1(2H)-yl)-2-(pyrrolidin-1-yl)ethan-1-one] registered an inhibition at 10 µM of 50 to 70%.

For `CC(C)CN1CCN(C(=O)C(C)N2CCCCC2)c2ccccc21` (stereo not shown) [Compound 172, 1-(4-isobutyl-3,4-dihydroquinoxaline-1(2H)-yl)-2-(piperidin-1-yl)propan-1-one], the inhibition at 10 µM is below 50%.

In the case of `CC(C)N1CCN(C(=O)CCN2CCN(C)CC2)c2ccccc21` [Compound 179, 1-(4-isopropyl-3,4-dihydroquinoxaline-1(2H)-yl)-3-(4-methylpiperazin-1-yl)propan-1-one], the inhibition at 10 µM was below 50%.

Consider `CN1CCN(CCC(=O)N2CCN(C(=O)c3ccccc3)c3ccccc32)CC1` [Compound 198, 1-(4-benzoyl-3,4-dihydroquinoxaline-1(2H)-yl)-3-(4-methylpiperazin-1-yl)propan-1-one], for which the inhibition at 10 µM is below 50%.

In turn, `CC(C(=O)N1CCN(Cc2ccccc2)c2ccccc21)N1CCCCC1` (stereo not shown) [Compound 82, 1-(4-benzyl-3,4-dihydroquinoxaline-1(2H)-yl)-2-(piperidin-1-yl)propan-1-one] came in with an inhibition at 10 µM below 50%.

For `O=C(CCN1CCCCC1)N1CCN(Cc2ccccc2Cl)c2ccccc21` [Compound 88, 1-(4-(2-chlorobenzyl)-3,4-dihydroquinoxaline-1(2H)-yl)-3-(piperidin-1-yl)propan-1-one], the inhibition at 10 µM is below 50%.

As to `CN1CCN(CCC(=O)N2CCN(c3ccccc3Cl)c3ccccc32)CC1` [Compound 127, 1-(4-(2-chlorophenyl)-3,4-dihydroquinoxaline-1(2H)-yl)-3-(4-methylpiperazin-1-yl)propan-1-one], the inhibition at 10 µM lay in the range of 50 to 70%.

The compound `O=C(CCN1CCCC1)N1CCN(CC2CC2)c2ccccc21` [Compound 161, 1-(4-(cyclopropylmethyl)-3,4-dihydroquinoxaline-1(2H)-yl)-3-(pyrrolidin-1-yl)propan-1-one] registered an inhibition at 10 µM below 50%.

The compound `N[C@H](Cc1c[nH]cn1)C(=O)N1CCN(c2ccc(F)cc2)c2cc(F)ccc21` [Compound 48, (R)-2-amino-1-(6-fluoro-4-(4-fluorophenyl)-3,4-dihydroquinoxaline-1(2H)-yl)-3-(1H-imidazol-4-yl)propan-1-one] gave an inhibition at 10 µM below 50%.

Turning to `O=C(CCN1CCCCC1)N1CCN(c2ccccc2Cl)c2ccccc21` [Compound 126, 1-(4-(2-chlorophenyl)-3,4-dihydroquinoxaline-1(2H)-yl)-3-(piperidin-1-yl)propan-1-one], the inhibition at 10 µM fell in the range of 50 to 70%.

With `O=C(CCN1CCCC1)N1CCN(c2ccccc2)c2cc(F)ccc21` [Compound 1, 1-(6-fluoro-4-phenyl-3,4-dihydroquinoxaline-1(2H)-yl)-3-(pyrrolidin-1-yl)propan-1-one], the inhibition at 10 µM was 50 to 70%.

With `O=C(CCN1CCCCC1)N1CCN(c2ccc(F)cc2)c2ccccc21` [Compound 16, 1-(4-(4-fluorophenyl)-3,4-dihydroquinoxaline-1(2H)-yl)-3-(piperidin-1-yl)propan-1-one], the inhibition at 10 µM is at least 70%.

In the case of `CC(C(=O)N1CCN(Cc2ccc(Cl)cc2)c2ccccc21)N1CCN(C)CC1` (stereo not shown) [Compound 110, 1-(4-(4-chlorobenzyl)-3,4-dihydroquinoxaline-1(2H)-yl)-2-(4-methylpiperazin-1-yl)propan-1-one], the inhibition at 10 µM is 50 to 70%.

With `O=C(CCN1CCCCC1)N1CCN(c2ccccc2)c2cc(F)ccc21` [Compound 3, 1-(6-fluoro-4-phenyl-3,4-dihydroquinoxaline-1(2H)-yl)-3-(piperidin-1-yl)propan-1-one], the inhibition at 10 µM fell in the range of 50 to 70%.

`CN1CCN(CC(=O)N2CCN(c3ccccn3)c3ccccc32)CC1` [Compound 154, 2-(4-methylpiperazin-1-yl)-1-(4-(pyridin-2-yl)-3,4-dihydroquinoxaline-1(2H)-yl)ethan-1-one di L-tartrate] showed an inhibition at 10 µM of at least 70%.

`O=C(CCN1CCCC(O)C1)N1CCN(c2ccccc2)c2ccccc21` (stereo not shown) [Compound 58, 3-(3-hydroxypiperidin-1-yl)-1-(4-phenyl-3,4-dihydroquinoxaline-1(2H)-yl)propan-1-one] came in with an inhibition at 10 µM of 50 to 70%.

On to `O=C(CCN1CCOCC1)N1CCN(c2ccccc2)c2cc(F)ccc21` [Compound 2, 1-(6-fluoro-4-phenyl-3,4-dihydroquinoxaline-1(2H)-yl)-3-morpholinopropan-1-one], for which the inhibition at 10 µM is below 50%.

Regarding `CC(C)N1CCN(C(=O)CCN2CCCC2)c2ccccc21` [Compound 177, 1-(4-isopropyl-3,4-dihydroquinoxaline-1(2H)-yl)-3-(pyrrolidin-1-yl)propan-1-one], the inhibition at 10 µM was below 50%.

`CC(C(=O)N1CCN(c2ccccc2)c2cc(F)ccc21)N1CCCC1` (stereo not shown) [Compound 10, 1-(6-fluoro-4-phenyl-3,4-dihydroquinoxaline-1(2H)-yl)-2-(pyrrolidin-1-yl)propan-1-one] returned an inhibition at 10 µM below 50%.

For the compound `CC(C)N1CCN(C(=O)CN2CCCCC2)c2ccccc21` [Compound 184, 1-(4-isopropyl-3,4-dihydroquinoxaline-1(2H)-yl)-2-(piperidin-1-yl)ethan-1-one], the inhibition at 10 µM was below 50%.

Compound `CC(C(=O)N1CCN(c2ccc(F)cc2)c2ccccc21)N1CCCC1` (stereo not shown) [Compound 33, 1-(4-(4-fluorophenyl)-3,4-dihydroquinoxaline-1(2H)-yl)-2-(pyrrolidin-1-yl)propan-1-one] returned an inhibition at 10 µM of 50 to 70%.

The compound `CC(C(=O)N1CCN(C(C)C)c2ccccc21)N1CCN(C)CC1` (stereo not shown) [Compound 182, 1-(4-isopropyl-3,4-dihydroquinoxaline-1(2H)-yl)-2-(4-methylpiperazin-1-yl)propan-1-one] came in with an inhibition at 10 µM below 50%.

With `O=C(CCN1CCCCC1)N1CCN(Cc2ccncc2)c2ccccc21` [Compound 123, 3-(piperidin-1-yl)-1-(4-(pyridin-4-ylmethyl)-3,4-dihydroquinoxaline-1(2H)-yl)propan-1-one], the inhibition at 10 µM was below 50%.

`CC(C(=O)N1CCN(C(=O)c2ccccc2)c2ccccc21)N1CCCC1` (stereo not shown) [Compound 199, 1-(4-benzoyl-3,4-dihydroquinoxaline-1(2H)-yl)-2-(pyrrolidin-1-yl)propan-1-one] gave an inhibition at 10 µM below 50%.

As to `O=C(CN1CCCCC1)N1CCN(Cc2ccccc2)c2ccccc21` [Compound 85, 1-(4-benzyl-3,4-dihydroquinoxaline-1(2H)-yl)-2-(piperidin-1-yl)ethan-1-one], the inhibition at 10 µM was below 50%.

`O=C(CCNCc1ccccn1)N1CCN(c2ccc(F)cc2)c2ccccc21` [Compound 21, 1-(4-(4-fluorophenyl)-3,4-dihydroquinoxaline-1(2H)-yl)-3-((pyridin-2-ylmethyl)amino)propan-1-one] registered an inhibition at 10 µM of 50 to 70%.

A word on the inhibition: it is the percentage by which the read-out fell short of the control. A high value points to a response far below the control.
